From PubChem BioAssay (NCI)
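Protocol summary: plate cells (96-well), add compound at 5 concentrations, incubate 48 h, interpolate endpoints linearly. TGI is the concentration that stops growth completely.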

Tests used:
Assay in all cases: NCI tumour cell line growth inhibition, 48 h
[1] = system: 786-0 renal
[2] = system: A498 renal
[3] = system: A549 NSCLC
[4] = system: ACHN renal
[5] = system: CAKI-1 renal
[6] = system: CCRF-CEM leukemia
[7] = system: COLO 205 colon
[8] = system: DU-145 prostate
[9] = system: EKVX NSCLC
[10] = system: HCC-2998 colon
[11] = system: HCT-116 colon
[12] = system: HCT-15 colon
[13] = system: HL-60(TB) leukemia
[14] = system: HOP-62 NSCLC
[15] = system: HOP-92 NSCLC
[16] = system: HS 578T breast
[17] = system: HT29 colon
[18] = system: IGROV1 ovarian
[19] = system: K-562 leukemia
[20] = system: KM12 colon
[21] = system: LOX IMVI melanoma
[22] = system: M14 melanoma
[23] = system: MALME-3M melanoma
[24] = system: MCF7 breast
[25] = system: MDA-MB-231 breast
[26] = system: MDA-MB-435
[27] = system: MDA-N
[28] = system: MOLT-4 leukemia
[29] = system: NCI-H226 lung
[30] = system: NCI-H23 lung
[31] = system: NCI-H460 lung
[32] = system: NCI-H522 lung
[33] = system: NCI/ADR-RES ovarian
[34] = system: OVCAR-3 ovarian
[35] = system: OVCAR-4 ovarian
[36] = system: OVCAR-5 ovarian
[37] = system: OVCAR-8 ovarian
[38] = system: PC-3 prostate
[39] = system: RPMI-8226 leukemia
[40] = system: RXF 393 renal
[41] = system: SF-268 CNS
[42] = system: SF-295 CNS
[43] = system: SF-539 CNS
[44] = system: SK-MEL-2 melanoma
[45] = system: SK-MEL-28 melanoma
[46] = system: SK-MEL-5 melanoma
[47] = system: SK-OV-3 ovarian
[48] = system: SN12C renal
[49] = system: SNB-19 CNS
[50] = system: SNB-75 CNS
[51] = system: SR leukemia
[52] = system: SW-620 colon
[53] = system: T-47D breast
[54] = system: TK-10 renal
[55] = system: U251 CNS
[56] = system: UACC-257 melanoma
[57] = system: UACC-62 melanoma
[58] = system: UO-31 renal

Measured: TGI

CC(C(O)c1ccccc1)C(O)(C(F)(F)F)C(F)(F)F (stereo not drawn)
> 100 µM: [1] | [2] | [3] | [4] | [5] | [6] | [7] | [8] | [9] | [10] | [11] | [12] | [13] | [14] | [15] | [16] | [17] | [18] | [19] | [20] | [21] | [22] | [23] | [24] | [25] | [26] | [27] | [28] | [29] | [30] | [31] | [32] | [33] | [34] | [35] | [36] | [37] | [38] | [39] | [40] | [41] | [42] | [43] | [44] | [45] | [46] | [47] | [48] | [49] | [50] | [51] | [52] | [53] | [54] | [55] | [56] | [57] | [58]
